# Test results published in ChEMBL document CHEMBL3132769, “Fragment growing to retain or alter the selectivity of anchored kinase hinge-binding fragments” (Medchemcomm, 2014).
# Key:
# [1] = biological target: Mitogen-activated protein kinase 14 (Homo sapiens) (UniProt Q16539); assay: Inhibition of human truncated p38 alpha expressed in Escherichia coli cell assessed as substrate phosphorylation using fluorescence-labelled peptides as substrate at 9 uM after 90 mins by microfluidic peptide phosphorylation assay
# [2] = biological target: T1, Mitogen-activated protein kinase 12 (Homo sapiens) (UniProt P53778); assay: Inhibition of human full length p38 gamma expressed in Escherichia coli cell assessed as substrate phosphorylation using fluorescence-labelled peptides as substrate at 95 uM after 90 mins by microfluidic peptide phosphorylation assay
# T1 sequence (whole entry): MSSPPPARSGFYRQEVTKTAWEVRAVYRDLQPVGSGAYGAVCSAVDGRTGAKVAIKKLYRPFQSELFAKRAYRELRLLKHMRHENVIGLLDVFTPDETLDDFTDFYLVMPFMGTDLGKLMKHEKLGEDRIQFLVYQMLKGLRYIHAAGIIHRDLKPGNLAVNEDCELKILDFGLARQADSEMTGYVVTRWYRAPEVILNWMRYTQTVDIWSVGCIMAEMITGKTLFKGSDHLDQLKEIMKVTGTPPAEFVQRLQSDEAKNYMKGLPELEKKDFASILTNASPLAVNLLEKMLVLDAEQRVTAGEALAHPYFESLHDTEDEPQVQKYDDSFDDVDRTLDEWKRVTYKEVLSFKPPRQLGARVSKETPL
# [3] = biological target: Tyrosine-protein kinase Fer (Homo sapiens) (UniProt P16591); settings: 0.1 uM
# Description: Inhibition of human FER catalytic domain expressed in baculovirus assessed as substrate phosphorylation using fluorescence-labelled peptides as substrate at 0.1 uM after 90 mins by microfluidic peptide phosphorylation assay
# [4] = biological target: T2, Serine/threonine-protein kinase DCLK2 (Homo sapiens) (UniProt Q8N568); assay: Inhibition of human full length DCAMKL2 expressed in baculovirus assessed as substrate phosphorylation using fluorescence-labelled peptides as substrate at […] after 90 mins by microfluidic peptide phosphorylation assay
# T2 sequence (whole entry): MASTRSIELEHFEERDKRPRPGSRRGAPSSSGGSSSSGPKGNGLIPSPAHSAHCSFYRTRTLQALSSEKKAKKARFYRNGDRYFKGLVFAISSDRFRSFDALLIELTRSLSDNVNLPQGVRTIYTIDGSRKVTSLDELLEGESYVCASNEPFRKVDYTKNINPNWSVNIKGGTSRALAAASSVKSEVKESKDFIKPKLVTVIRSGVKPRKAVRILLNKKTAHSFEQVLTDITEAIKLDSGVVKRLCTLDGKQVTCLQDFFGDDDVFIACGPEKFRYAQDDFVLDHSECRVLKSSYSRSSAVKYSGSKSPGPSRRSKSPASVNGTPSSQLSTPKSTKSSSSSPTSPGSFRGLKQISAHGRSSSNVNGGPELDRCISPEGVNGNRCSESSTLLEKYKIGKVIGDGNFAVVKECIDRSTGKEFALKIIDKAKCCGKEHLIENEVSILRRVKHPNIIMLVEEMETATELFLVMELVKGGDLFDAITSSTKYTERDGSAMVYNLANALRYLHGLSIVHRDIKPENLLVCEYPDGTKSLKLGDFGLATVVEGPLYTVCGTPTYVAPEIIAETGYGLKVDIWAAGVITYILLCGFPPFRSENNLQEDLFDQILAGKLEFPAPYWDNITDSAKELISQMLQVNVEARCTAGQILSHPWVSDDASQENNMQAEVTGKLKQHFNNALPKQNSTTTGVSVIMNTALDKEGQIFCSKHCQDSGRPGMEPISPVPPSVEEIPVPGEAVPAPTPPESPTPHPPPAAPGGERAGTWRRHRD
# [5] = biological target: T3, Calcium/calmodulin-dependent protein kinase type IV (Homo sapiens) (UniProt Q16566); assay: Inhibition of human full length CAMK4 expressed in baculovirus assessed as substrate phosphorylation using fluorescence-labelled peptides as substrate at 420 uM after 90 mins by microfluidic peptide phosphorylation assay
# T3 sequence (whole entry): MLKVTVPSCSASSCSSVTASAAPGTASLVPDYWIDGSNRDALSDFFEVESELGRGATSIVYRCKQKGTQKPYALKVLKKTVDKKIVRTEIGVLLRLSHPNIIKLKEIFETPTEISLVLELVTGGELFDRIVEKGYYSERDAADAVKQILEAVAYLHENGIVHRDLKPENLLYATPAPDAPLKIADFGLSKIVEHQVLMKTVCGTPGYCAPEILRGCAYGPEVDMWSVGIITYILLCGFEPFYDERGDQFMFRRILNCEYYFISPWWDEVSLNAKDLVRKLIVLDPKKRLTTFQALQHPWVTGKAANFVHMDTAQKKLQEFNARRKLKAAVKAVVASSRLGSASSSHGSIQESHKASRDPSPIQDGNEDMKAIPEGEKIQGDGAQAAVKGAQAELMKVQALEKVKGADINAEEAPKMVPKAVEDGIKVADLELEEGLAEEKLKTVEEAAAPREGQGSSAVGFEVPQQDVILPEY
# [6] = biological target: Cyclin-dependent kinase 2 (Homo sapiens) (UniProt P24941); assay: Inhibition of human full length CDK2 expressed in baculovirus assessed as substrate phosphorylation using fluorescence-labelled peptides as substrate at 70 uM after 90 mins by microfluidic peptide phosphorylation assay
# [7] = species on record: Homo sapiens; assay: Inhibition of human full length PKA expressed in baculovirus assessed as substrate phosphorylation using fluorescence-labelled peptides as substrate at 70 uM after 90 mins by microfluidic peptide phosphorylation assay
# [8] = biological target: T3, Calcium/calmodulin-dependent protein kinase type IV (Homo sapiens); assay: Inhibition of human full length CAMK4 expressed in baculovirus assessed as substrate phosphorylation using fluorescence-labelled peptides as substrate at 70 uM after 90 mins by microfluidic peptide phosphorylation assay
# [9] = system: Fibroblast growth factor receptor 2 (Homo sapiens), P21802 [N549H]; assay: Inhibition of human FGFR2 N549H mutant catalytic domain expressed in baculovirus assessed as substrate phosphorylation using fluorescence-labelled peptides as substrate at 70 uM after 90 mins by microfluidic peptide phosphorylation assay
# [10] = biological target: Mitogen-activated protein kinase 14 (Homo sapiens) (UniProt Q16539); assay: Inhibition of human truncated p38 alpha expressed in Escherichia coli cell assessed as substrate phosphorylation using fluorescence-labelled peptides as substrate at 0.2 uM after 90 mins by microfluidic peptide phosphorylation assay
# [11] = biological target: T4, Aurora kinase A (Homo sapiens) (UniProt O14965); assay: Inhibition of human full length AurA expressed in baculovirus assessed as substrate phosphorylation using fluorescence-labelled peptides as substrate at 1000 uM after 90 mins by microfluidic peptide phosphorylation assay
# T4 sequence (whole entry): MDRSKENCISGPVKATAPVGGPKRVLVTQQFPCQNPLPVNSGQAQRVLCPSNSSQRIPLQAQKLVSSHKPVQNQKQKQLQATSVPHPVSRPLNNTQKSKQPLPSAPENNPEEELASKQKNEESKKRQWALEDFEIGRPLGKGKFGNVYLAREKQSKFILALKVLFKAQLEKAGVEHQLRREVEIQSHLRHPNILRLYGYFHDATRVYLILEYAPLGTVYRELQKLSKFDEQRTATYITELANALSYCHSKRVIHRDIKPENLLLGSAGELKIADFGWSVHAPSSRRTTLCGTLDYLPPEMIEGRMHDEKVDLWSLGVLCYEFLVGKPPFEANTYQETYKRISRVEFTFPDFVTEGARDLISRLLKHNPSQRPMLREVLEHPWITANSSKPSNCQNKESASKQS
# Chain of Mitogen-activated protein kinase 14 (Homo sapiens) (Q16539 whole entry, the tested form may be a part): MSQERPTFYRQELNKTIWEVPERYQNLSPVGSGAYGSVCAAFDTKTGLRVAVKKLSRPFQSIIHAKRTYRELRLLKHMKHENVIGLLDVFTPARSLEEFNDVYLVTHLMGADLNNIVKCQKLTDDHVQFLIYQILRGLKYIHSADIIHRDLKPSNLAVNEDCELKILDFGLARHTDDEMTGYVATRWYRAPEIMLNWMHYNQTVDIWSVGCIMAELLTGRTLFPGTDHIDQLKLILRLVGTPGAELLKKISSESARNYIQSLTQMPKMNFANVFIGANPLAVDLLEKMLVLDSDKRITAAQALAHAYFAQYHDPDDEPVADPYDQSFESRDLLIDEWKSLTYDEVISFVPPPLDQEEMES
# Chain of Tyrosine-protein kinase Fer (Homo sapiens) (P16591 whole entry, looked up): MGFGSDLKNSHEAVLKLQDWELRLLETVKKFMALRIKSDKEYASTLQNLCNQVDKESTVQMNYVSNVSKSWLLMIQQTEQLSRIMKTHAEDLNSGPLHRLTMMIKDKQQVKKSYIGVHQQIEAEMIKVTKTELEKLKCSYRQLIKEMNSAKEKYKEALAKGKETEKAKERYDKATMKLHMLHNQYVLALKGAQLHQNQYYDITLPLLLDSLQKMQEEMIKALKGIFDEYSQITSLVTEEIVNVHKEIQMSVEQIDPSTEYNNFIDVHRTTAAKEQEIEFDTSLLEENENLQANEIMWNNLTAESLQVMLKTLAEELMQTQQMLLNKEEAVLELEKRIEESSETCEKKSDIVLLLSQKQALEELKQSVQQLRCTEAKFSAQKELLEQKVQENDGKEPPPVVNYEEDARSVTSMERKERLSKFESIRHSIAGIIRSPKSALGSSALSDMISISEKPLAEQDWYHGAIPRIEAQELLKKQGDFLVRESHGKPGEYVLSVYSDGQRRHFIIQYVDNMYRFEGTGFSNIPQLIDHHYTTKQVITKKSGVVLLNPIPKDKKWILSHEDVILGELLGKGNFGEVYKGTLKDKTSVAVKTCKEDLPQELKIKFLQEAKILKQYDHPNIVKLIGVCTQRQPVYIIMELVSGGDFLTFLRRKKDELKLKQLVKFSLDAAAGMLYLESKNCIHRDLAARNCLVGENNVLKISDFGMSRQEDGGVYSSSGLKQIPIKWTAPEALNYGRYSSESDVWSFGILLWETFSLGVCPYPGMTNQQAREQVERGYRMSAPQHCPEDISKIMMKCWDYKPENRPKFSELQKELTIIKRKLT
# Chain of Fibroblast growth factor receptor 2 (Homo sapiens), P21802 [N549H] (P21802 whole entry N549H, the tested form may be a part): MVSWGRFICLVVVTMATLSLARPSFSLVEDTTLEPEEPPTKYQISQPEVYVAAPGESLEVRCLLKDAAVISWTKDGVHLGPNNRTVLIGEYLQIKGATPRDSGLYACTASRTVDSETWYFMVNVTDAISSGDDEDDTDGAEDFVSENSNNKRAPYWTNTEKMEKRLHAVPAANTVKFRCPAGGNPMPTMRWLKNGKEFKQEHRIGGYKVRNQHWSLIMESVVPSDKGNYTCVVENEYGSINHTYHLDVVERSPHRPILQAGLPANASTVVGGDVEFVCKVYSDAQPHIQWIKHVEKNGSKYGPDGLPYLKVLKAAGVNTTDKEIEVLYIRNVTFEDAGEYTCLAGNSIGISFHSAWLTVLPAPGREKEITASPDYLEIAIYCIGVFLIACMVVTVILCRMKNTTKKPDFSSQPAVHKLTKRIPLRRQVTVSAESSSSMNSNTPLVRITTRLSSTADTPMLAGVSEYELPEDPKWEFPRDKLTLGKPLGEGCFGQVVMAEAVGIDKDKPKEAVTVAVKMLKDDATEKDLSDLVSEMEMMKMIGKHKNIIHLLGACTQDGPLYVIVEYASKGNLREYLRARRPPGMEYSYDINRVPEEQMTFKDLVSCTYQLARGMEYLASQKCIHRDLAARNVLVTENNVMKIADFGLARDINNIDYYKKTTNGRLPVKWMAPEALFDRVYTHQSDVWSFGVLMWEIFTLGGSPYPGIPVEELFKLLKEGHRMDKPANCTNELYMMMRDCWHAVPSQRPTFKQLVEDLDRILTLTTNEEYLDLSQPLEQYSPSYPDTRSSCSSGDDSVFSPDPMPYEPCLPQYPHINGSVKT
smiles,measurement,setting,value
NCC1CN(c2ncnc3[nH]c4cnccc4c23)CCO1 (stereo unspecified),inhibition,[1],2.5%
NCCc1ccc(-c2ncnc3[nH]cnc23)cc1,inhibition,[2],13%
C[C@H](CN(C)C)Oc1nc(Nc2cc3cccc(Cl)c3cn2)cnc1C#N,inhibition,[3],0%
COC(=O)c1cnc(Nc2cnc(C#N)cn2)cc1NCC1CCNCC1,inhibition,[4],4.5%
c1nc(N2CCOCC2)c2nc[nH]c2n1,inhibition,[5],62%
CNCc1ccc(-c2ncnc3[nH]cnc23)cc1,inhibition,[6],34%
same,inhibition,[7],96%
same,inhibition,[8],77.5%
same,inhibition,[9],35.5%
Clc1ccc(C2(c3ccc(-c4ncnc5[nH]cnc45)cc3)CCNCC2)cc1,inhibition,[10],5%
c1cnc2[nH]ccc2c1,inhibition,[11],88%
